We go through 8 molecules from patent US5461036A, “Spicamycin derivatives and their use as anticancer agents” (priority 1991, dated 1995).

In general, LD50 refers to the dose expected to kill half of the subjects tested.

Read-outs that look alike come from different tables or passages of the source.

In data set [1] the test system is human colon cancer (COL-1). Format: in vivo, mouse. As to the method: (2) Method for measuring the antitumor effect on human colon cancer (COL-1)
COL-1, a human colon cancer, was transplanted subcutaneously into nude mice. When the tumor had grown to a volume of about 100 mm^3, the nude mice were divided into groups of 5 animals so that the average tumor volumes of respective groups were equalized. The respective spicamycin derivatives were administered to test groups at their MTDs, while physiological saline (solvent) containing 1% DMSO and 1% Cremophor EL® was administered to the control group. […] RV is expressed as RV =Vn/Vo where Vn is the tumor volume on day n and Vo is the initial tumor volume at the time treatment was commenced.

Data set [2] relates to nude mice. Put plainly: in vivo. The note with it: intravenous, continuous 5 days, maximum dose at which no animal was dead within 2 weeks, 20160 min. More on the design: species or system nude mice (BALB/c nu/nu). As to the method:
(§1) (1) Measurement of maximum tolerated dose (MTD) of the spicamycin derivatives in nude mice
(§2) The spicamycin derivative was dissolved in dimethylsulfoxide (DMSO) and Cremophor EL® at the same volume as DMSO was added. Physiological saline was added so that the concentration of DMSO and Cremophor EL® was finally adjusted to 1%, respectively, and thus injection liquids of spicamycin derivative in a variety of concentrations were prepared. […] The maximum dose at which no animal was dead was defined as the MTD of the respective derivatives.

Data set [3] can be described thus: Acute toxicity (LD50). The note with it: mouse, in vivo; intravenous, ICR mice (female, 6 weeks old), 14 days observation, Litchfield and Wilcoxon. The text has this: The LD50 was obtained from the mortalities at the respective dosage groups by the Litchfield and Wilcoxon's method.
Data set [4] has as its system Walker 256 rat sarcoma. The note with it: in vivo; cited from earlier work.
In data set [5] the test system is L1210 mouse leukemia. The note with it: in vivo; cited from earlier work.
The nature of data set [6]: in vivo. As to conditions: mouse, in vivo; intravenous, continuous 5 days, nude mice; maximum dose at which no animal was dead within 2 weeks; read-out: Maximum tolerated dose. More on the design: species or system nude mice (BALB/c nu/nu). The protocol: as §1, §2
[7] abbreviates: /minimum effective dose (effective: TGIR≥50).
Where [8] appears, read: COL-1 s.c. in nude mice, at MTD, TGIR=(1-Tx/Cx)×100, maximum during about 3 weeks.
[9] abbreviates: COL-1 s.c. in nude mice, at MTD, minimum throughout the test period.

In data set [1] (setting [7]), `CCCCCCCCC/C=C/C=C/C(=O)NCC(=O)N[C@@H]1[C@@H](O)[C@@H](O)[C@@H](Nc2ncnc3[nH]cnc23)O[C@H]1C(O)CO` (stereo partly drawn) [SPK241, 6-[4'-N-(N'-trans,trans-2,4-tetradecadienoylglycyl)spicaminyl-amino]purine] registered a Therapeutic index of 16. Further, in data set [1] (in vivo, sc), the “TGIR (tumor growth inhibition rate, maximum)” value worked out at 97 and the “minTx (relative tumor volume when reduced to the minimum)” value is on record as 0.14. In addition, in data set [2], the Maximum tolerated dose was found to be 6 mg/kg/day. In data set [3], this molecule displayed an LD50 at 336 h of 110 mg/kg.

For `CC(C)CCCCCCCCCCCCC(=O)NCC(=O)NC1C(O)C(O)C(Nc2ncnc3nc[nH]c23)OC1C(O)CO` (stereo not drawn) [septacidin], in data set [4], the “antitumor activity against Walker 256 rat sarcoma” value was “no antitumor activity”. Further, in data set [5], the “antitumor activity against L1210 mouse leukemia” value was “no antitumor activity”.

Take `CCCCCCCCCCCC(=O)NCC(=O)NC1C(O)C(O)C(Nc2ncnc3[nH]cnc23)OC1C(O)CO` (stereo not drawn) [SPM8, reference compound]: the “TGIR (tumor growth inhibition rate, maximum)” value in data set [1] (setting [8]) came out at 94. In data set [1] (setting [9]), the “minTx (relative tumor volume when reduced to the minimum)” value was 0.19. Also, in data set [1] (mouse, in vivo), the Therapeutic index came to 4. Also, the MTD at 336 h in data set [6] turned out to be 10.4 mg/kg/day.

As to `CCCCCCCCCCCCCC[C@@H](OC(C)=O)C(=O)NCC(=O)NC1C(O)C(O)C(Nc2ncnc3[nH]cnc23)OC1C(O)CO` (stereo partly drawn) [SPK198, 6-[4'-N-(N'-(R) -2-acetoxyhexadecanoylglycyl)-spicaminyl-amino]purine], in data set [1] (setting [8]), the “TGIR (tumor growth inhibition rate, maximum)” value is listed as 82. Also, in data set [6], the MTD at 336 h was determined as 1.5 mg/kg/day.

As to `CCCCCCCCCCCCCC(O)CC(=O)NCC(=O)NC1C(O)C(O)C(Nc2ncnc3[nH]cnc23)OC1C(O)CO` (stereo not drawn) [SPK115, 6-[4'-N-(N'-3-hydroxyhexadecanoylglycyl)-spicaminyl-amino]purine], the Therapeutic index in data set [1] (setting [7]) is reported as 4. Further, in data set [1] (setting [8]), the “TGIR (tumor growth inhibition rate, maximum)” value came to 99. Also, in data set [1] (setting [9]), the “minTx (relative tumor volume when reduced to the minimum)” value amounted to 0.08. Also, the MTD at 336 h in data set [6] was determined as 3 mg/kg/day.

As to `O=C(CCCCCCCCCCCCCCl)NCC(=O)N[C@@H]1[C@@H](O)[C@@H](O)[C@@H](Nc2ncnc3[nH]cnc23)O[C@H]1C(O)CO` (stereo partly drawn) [SPK280, 6-[4'-N-(N'-14-chlorotetradecanoylglycyl)spicaminyl-amino]purine], the “TGIR (tumor growth inhibition rate, maximum)” value in data set [1] (setting [8]) is listed as 94. Besides, the “minTx (relative tumor volume when reduced to the minimum)” value in data set [1] (setting [9]) is listed as 0.19. In addition, the Therapeutic index in data set [1] (mouse, in vivo) was 8. Also, the MTD at 336 h in data set [6] was 9 mg/kg/day.

On to `O=C(CCCCCCCCCCI)NCC(=O)NC1C(O)C(O)C(Nc2ncnc3[nH]cnc23)OC1C(O)CO` (stereo not drawn) [SPK165, 6-[4'-N-(N'-11-iodoundecanoylglycyl)spicaminyl-amino]purine], for which the “TGIR (tumor growth inhibition rate, maximum)” value in data set [1] (setting [8]) is listed as 86. Moreover, in data set [6], the MTD at 336 h is 24 mg/kg/day.

Turning to `O=C(CCCCCCCCCCCCCl)NCC(=O)N[C@@H]1[C@@H](O)[C@@H](O)[C@@H](Nc2ncnc3[nH]cnc23)O[C@H]1C(O)CO` (stereo partly drawn) [SPK278, 6-[4'-N-(N'-13-chlorotridecanoylglycyl)spicaminyl-amino]purine], the “TGIR (tumor growth inhibition rate, maximum)” value in data set [1] (setting [8]) amounted to 92. Besides, in data set [1] (setting [9]), the “minTx (relative tumor volume when reduced to the minimum)” value was found to be 0.21. In data set [1] (mouse, in vivo), this molecule gave a Therapeutic index of 8. In data set [6], the MTD at 336 h came out at 12 mg/kg/day.
